Measured values taken from patent publication US20260078103A1, “ISOQUINOLONES AS PI3K INHIBITORS” (OnKure, Inc., priority 2022, published 2026).
Where two headings read alike, the source gives them in different places.

Tests used:
Assay type in all cases: cell-based
[1] = test system: phosphorylation of AKT (pAKT) in T47D cells expressing mutant PI3Ka (H1047R); test: In vitro cell pAKT (Ser473) HTRF, T47D cells
Method: (§1) In Vitro Cell pAKT: Determination of IC50 Values for Inhibition of Phosphorylation of AKT (pAKT) in T47D Cells Expressing Mutant PI3Ka (H1047R) Mutation and SKBR3 Cells Express WT PI3Ka.
(§2) T47D or SKBR3 cells were trypsinized, resuspended in culture media and seeded onto assay ready plates. T47D culture media consisted of RPMI, 10% FBS and Insulin (0.2 units/mL). SKBR3 culture media consisted of McCoy's 5a and 10% FBS. Cells were seeded at a density of 5000 cells/well and dispensed in 12.5 μL onto 384 well assay ready plates (Perkin Elmer, 6008238)). Assay ready plates had previously been stamped with 10-point dilutions of compounds of interest, as well as controls. The Echo655 is used to stamp plates at 12.5 nL of compound or DMSO. Cells were grown for 6 hours at 37° Celsius and 5% CO2. After 6 hours, 4 μL of Lysis buffer reagent was added to the plate, which was then centrifuged for 1 minute at 1000 rpm. Then the plate was incubated at room temperature for 30 minutes. After 30 minutes, 4 μL of antibody mix containing Eu Cryptate, d2 Cryptate, and detection buffer, was added to the plate. The plate was centrifuged for 1 minute at 1000 rpm and then incubated overnight at room temperature. The plate was read on an Envision plate reader using the HTRF protocol. The percentage of inhibition of AKT phosphorylation was calculated using the following formula: % Inhibition=100×(pAKTHC−pAKTSample)/(pAKTHC−pAKTLC)), where pAKTHC is obtained from cells treated with 0.1% DMSO only; PAKTLC is obtained from cells treated with 10 uM Alpelisib. The IC50 (concentration achieving 50% inhibition of pAKT) is calculated by fitting the Curve using XIfit (v5.3.1.3), equation 201: Y=Bottom+(Top−Bottom)/(1+10^((LogIC50−X)*HillSlope)).

[2] = test system: T47D cells expressing mutant PI3Ka (H1047R); test: In vitro cell proliferation, T47D cells (CellTiter-Glo); conditions: inhibition of proliferation, read-out: Avg T-47D EC50
Method: (§3) In Vitro Cell Proliferation: Determination of EC50 Values for Inhibition of Proliferation in T47D Cells Expressing Mutant PI3Ka (H1047R) Mutation and SKBR3 Cells Express WT PI3Ka.
(§4) T47D or SKBR3 cells were trypsinized, resuspended in culture media and seeded onto assay ready plates. T47D culture media consisted of RPMI, 10% FBS and Insulin (0.2 units/mL). SKBR3 culture media consisted of McCoys 5a and 10% FBS. Cells were seeded at a density of 1,500 cells/well and dispensed in 50 μl onto 384 well assay ready plates (Corning, 89089-790). Assay ready plates had previously been stamped with 10-point dilutions of compounds of interest, as well as controls. The Echo655 is used to stamp plates at 40 nL of compound or DMSO. Cells were grown for 72 hours at 37° Celsius and 5% CO2. After 72 hours, cells were equilibrated at room temperature for 15 minutes. 30 μL of CellTiter-Glo reagent is added to the plate, which is then shaken for 30 minutes at temperature at 300-500 rpm. Cells are then read on an Envision plate reader. The percentage of inhibition of proliferation was calculated using the following formula: % Inhibition=100×(LumD−Lumsample)/(LumD−Lumlnh), where D is obtained from cells treated with 0.1% DMSO only; lnh is obtained from cells treated with 10 uM Alpelisib. The effective concentration achieving 50% inhibition of proliferation (EC50) is calculated by fitting the Curve using Xlfit (v5.3.1.3), equation 201: Y=Bottom+(Top−Bottom)/(1+10^((LogEC50−X)*HillSlope)).

[3] = test system: phosphorylation of AKT (pAKT) in SKBR3 cells express WT PI3Ka; test: In vitro cell pAKT (Ser473) HTRF, SKBR3 cells; conditions: cellular pAKT
Method: as §1, §2

[4] = test system: SKBR3 cells express WT PI3Ka; test: In vitro cell proliferation, SKBR3 cells (CellTiter-Glo); conditions: inhibition of proliferation
Method: as §3, §4

[5] = cellular pAKT, T47D cells, mutant PI3Ka (H1047R), 6 hours; read-out: Avg T-47D IC50

SMILES	IC50 [1, 5]	EC50 ([2]; 72 hours)	IC50 ([3]; 6 hours)	EC50 ([4]; 72 hours)	EC50 ([4]; Homo sapiens, SK-BR-3, 72 h)	IC50 ([3]; Homo sapiens, SK-BR-3, 6 h)	EC50 ([2]; Homo sapiens, T47D, 72 h)	IC50 ([1]; read-out: Avg T-47D IC50; cellular pAKT, T47D cells, mutant PI3Ka (H1047R), 6 hours)
Cc1cc(C(C)Nc2ccccc2C(=O)O)c2cc(N3CCC(C)(C)CC3)n(C)c(=O)c2c1 (single isomer, unassigned) [Example 2, 2-((1-(3-(4,4-dimethylpiperidin-1-yl)-2,7-dimethyl-1-oxo-1,2-dihydroisoquinolin-5-yl)ethyl)amino)benzoic acid]		2 to 15 µM	> 15 µM	> 15 µM				> 15 µM
Cc1cc(C(C)Nc2ccc(Cl)nc2C(=O)O)c2cc(N3CCC(C)(C)CC3)n(C)c(=O)c2c1 (single isomer, unassigned) [Example 3, 6-chloro-3-((1-(3-(4,4-dimethylpiperidin-1-yl)-2,7-dimethyl-1-oxo-1,2-dihydroisoquinolin-5-yl)ethyl)amino)picolinic acid]	0.5 to 2 µM	0.001 to 0.5 µM	2 to 15 µM		2 to 15 µM			
Cc1cc(C(C)Nc2ccc(Cl)nc2C(=O)O)c2cc(N3CCC(C)(C)CC3)n(C)c(=O)c2c1 (single isomer, unassigned) [Example 4, 6-chloro-3-((1-(3-(4,4-dimethylpiperidin-1-yl)-2,7-dimethyl-1-oxo-1,2-dihydroisoquinolin-5-yl)ethyl)amino)picolinic acid]	2 to 15 µM	2 to 15 µM	> 15 µM	2 to 15 µM				
Cc1cc(C(C)Nc2ccccc2C(=O)O)c2cc(C3=CCC(C)(C)CC3)n(C)c(=O)c2c1 (single isomer, unassigned) [Example 5, 2-((1-(3-(4,4-dimethylcyclohex-1-en-1-yl)-2,7-dimethyl-1-oxo-1,2-dihydroisoquinolin-5-yl)ethyl)amino)benzoic acid]	2 to 15 µM	2 to 15 µM	> 15 µM	> 15 µM				
Cc1cc(C(C)Nc2ccccc2C(=O)O)c2cc(C3=CCC(C)(C)CC3)n(C)c(=O)c2c1 (single isomer, unassigned) [Example 6, 2-((1-(3-(4,4-dimethylcyclohex-1-en-1-yl)-2,7-dimethyl-1-oxo-1,2-dihydroisoquinolin-5-yl)ethyl)amino)benzoic acid]	0.001 to 0.5 µM	0.001 to 0.5 µM	2 to 15 µM	2 to 15 µM				
Cc1cc(C(C)Nc2ccccc2C(=O)O)c2cc(C3CCC(C)(C)CC3)n(C)c(=O)c2c1 (single isomer, unassigned) [Example 51]		2 to 15 µM		> 15 µM				
Cc1cc(C(C)Nc2ccccc2C(=O)O)c2cc(C3CCC(C)(C)CC3)n(C)c(=O)c2c1 (single isomer, unassigned) [Example 52]		0.001 to 0.5 µM		2 to 15 µM				
Cc1ccc(N[C@H](C)c2cc(F)cc3c(=O)n(C)c(C4CC4C4CC4)cc23)c(C(=O)O)n1 (stereo in doubt) [Example 46, -(((R)-1-(3-(trans-[1,1′-bi(cyclopropan)]-2-yl)-7-fluoro-2-methyl-1-oxo-1,2-dihydroisoquinolin-5-yl)ethyl)amino)-6-methylpicolinic acid]	0.001 to 0.5 µM	0.5 to 2 µM	> 15 µM					
Cc1cc(C(C)Nc2ccccc2C(=O)O)c2cc(N3C[C@@H]4[C@@H](C#N)[C@@H]4C3)n(C)c(=O)c2c1 (stereo partly drawn) [Example 16, 2-((1-(3-((1R,5S,6r)-6-cyano-3-azabicyclo[3.1.0]hexan-3-yl)-2,7-dimethyl-1-oxo-1,2-dihydroisoquinolin-5-yl)ethyl)amino)benzoic acid]	> 15 µM	2 to 15 µM						
Cc1cc(C(C)Nc2ccccc2C(=O)O)c2cc(N3CC(c4ccccc4)C3)n(C)c(=O)c2c1 (centres unmarked) [Example 53]					> 15 µM		2 to 15 µM	

The next lines start with results.

IC50 [1, 5]	EC50 ([2]; 72 hours)	IC50 ([3]; 6 hours)	EC50 ([4]; 72 hours)	EC50 ([4]; Homo sapiens, SK-BR-3, 72 h)	IC50 ([3]; Homo sapiens, SK-BR-3, 6 h)	EC50 ([2]; Homo sapiens, T47D, 72 h)	SMILES	IC50 ([1]; read-out: Avg T-47D IC50; cellular pAKT, T47D cells, mutant PI3Ka (H1047R), 6 hours)
0.001 to 0.5 µM	0.5 to 2 µM	> 15 µM	> 15 µM				Cc1cc(C(C)Nc2ccccc2C(=O)O)c2cc(N3CCC(c4ccccc4)C3)n(C)c(=O)c2c1 (mixture of isomers) [Example 60]	
0.5 to 2 µM	0.5 to 2 µM	> 15 µM	> 15 µM				Cc1cc(C(C)Nc2ccccc2C(=O)O)c2cc(N3CC4CN(CC(F)(F)F)CC4C3)n(C)c(=O)c2c1 (mixture of isomers) [Example 90]	
0.001 to 0.5 µM	0.001 to 0.5 µM	> 15 µM	2 to 15 µM				Cc1cc(C(C)Nc2ccccc2C(=O)O)c2cc(N3CCN(C(C)C(F)(F)F)CC3)n(C)c(=O)c2c1 (mixture of isomers) [Example 271]	
2 to 15 µM	2 to 15 µM	> 15 µM	> 15 µM				Cc1cc(C(C)Nc2ccccc2C(=O)O)c2cc(N3CCN(CC(F)(F)F)CC3)n(C)c(=O)c2c1 (single isomer, unassigned) [Example 9, 2-((1-(2,7-dimethyl-1-oxo-3-(4-(2,2,2-trifluoroethyl)piperazin-1-yl)-1,2-dihydroisoquinolin-5-yl)ethyl)amino)benzoic acid]	
> 15 µM	2 to 15 µM	> 15 µM		2 to 15 µM			Cc1cc(C(C)Nc2ccccc2C(=O)O)c2cc(N3CC4CCC(C4)C3)n(C)c(=O)c2c1 (single isomer, unassigned) [Example 10, 2-((1-(3-(3-azabicyclo[3.2.1]octan-3-yl)-2,7-dimethyl-1-oxo-1,2-dihydroisoquinolin-5-yl)ethyl)amino)benzoic acid]	
0.001 to 0.5 µM	0.001 to 0.5 µM	2 to 15 µM	2 to 15 µM				Cc1cc(C(C)Nc2ccccc2C(=O)O)c2cc(N3CC4CCC(C4)C3)n(C)c(=O)c2c1 (single isomer, unassigned) [Example 11, 2-((1-(3-(3-azabicyclo[3.2.1]octan-3-yl)-2,7-dimethyl-1-oxo-1,2-dihydroisoquinolin-5-yl)ethyl)amino)benzoic acid]	
> 15 µM	> 15 µM			> 15 µM	> 15 µM		Cc1cc(C(C)Nc2ccccc2C(=O)O)c2cc(N3CCN(C)CC3)n(C)c(=O)c2c1 (single isomer, unassigned) [Example 12, 2-((1-(2,7-dimethyl-3-(4-methylpiperazin-1-yl)-1-oxo-1,2-dihydroisoquinolin-5-yl)ethyl)amino)benzoic acid]	
0.5 to 2 µM	0.5 to 2 µM	> 15 µM	> 15 µM				Cc1cc(C(C)Nc2ccccc2C(=O)O)c2cc(N3CCN(C)CC3)n(C)c(=O)c2c1 (single isomer, unassigned) [Example 13, 2-((1-(2,7-dimethyl-3-(4-methylpiperazin-1-yl)-1-oxo-1,2-dihydroisoquinolin-5-yl)ethyl)amino)benzoic acid]	
> 15 µM	2 to 15 µM			2 to 15 µM	> 15 µM		Cc1cc(C(C)Nc2ccccc2C(=O)O)c2cc(N3Cc4cccnc4C3)n(C)c(=O)c2c1 (single isomer, unassigned) [Example 18, 2-((1-(3-(5,7-dihydro-6H-pyrrolo[3,4-b]pyridin-6-yl)-2,7-dimethyl-1-oxo-1,2-dihydroisoquinolin-5-yl)ethyl)amino)benzoic acid]	
	2 to 15 µM		> 15 µM				Cc1cc(C(C)Nc2ccccc2C(=O)O)c2cc(N3Cc4ccc(F)cc4C3)n(C)c(=O)c2c1 (single isomer, unassigned) [Example 50]	
				> 15 µM		2 to 15 µM	CC(=O)N1CCN(c2cc3c(C(C)Nc4ccccc4C(=O)O)cc(C)cc3c(=O)n2C)CC1 (centres unmarked) [Example 54]	
